# Source: US20250290117A1, “MOLECULAR PHENOTYPIC ANTIMICROBIAL SUSCEPTIBILITY TESTING” (priority 2024, published 2025)
# Legend:
# Assay type in all cases: cell-based
# [1] = tested on: Staphylococcus epidermidis; assay: Traditional culture-based antimicrobial susceptibility test
# From the text: (§1) Table 1 illustrates the results of an example antimicrobial agent susceptibility test of the current application versus a traditional culture-based antimicrobial agent susceptibility test for Staphylococcus epidermidis. This specimen underwent extraction or DNA purification prior to PCR. The results of the test of the current application are similar to the results from the traditional test, with the results from the test of the current application being reportable considerably earlier than the test of the traditional test due no pathogen isolation requirement and due to less incubation time being required for the test of the current application. Result Reporting to Healthcare Providers. The results from the antimicrobial exposure are reported to the ordering healthcare provider. This information can be utilized by the healthcare provider when selecting an antimicrobial regimen for their individual patient based on these individual specimen results and patient specific factors. […] The current standard of care for antimicrobial susceptibility testing involves the growth, isolation, and exposure of pathogens to antimicrobials. This traditional culture and sensitivity process can take multiple days to obtain results, limiting the ability of healthcare providers to receive timely results to make actionable changes in patient care or management. Healthcare providers desire a method to obtain antimicrobial susceptibility results with quicker turn-around-time. This application discloses a molecular-based phenotypic antimicrobial susceptibility method which involves pathogen exposure to a panel of antimicrobial agents at their specified minimum inhibitory concentration breakpoints for sensitivity. This method allows for more timely antimicrobial susceptibility results.
# Acinetobacter baumannii = assay: Molecular phenotypic antimicrobial susceptibility test (extraction/DNA purification prior to PCR)
# Protocol: Detection of Molecular Phenotypic Antimicrobial Susceptibility. Disclosed herein are the methods for the detection of phenotypic antimicrobial susceptibility via molecular methods. The present invention describes how a specimen 100 with a known microbial load is incubated and then exposed to a panel of antimicrobial agents to determine sensitivity (prevention of growth) or resistance (allowance of growth) to the specific antimicrobial agents tested utilizing molecular methods. Sample Collection. Specimens 100 are collected from patients using sterile collection processes that are employed in routine clinical care. Specimens are transported to the testing facility in boric acid preservative. […] The specimens 100 are put through a pathogen identification process using PCR technology (e.g., using the first sample 104). The process for pathogen isolation includes steps of harvesting the pathogen (e.g., via centrifugation), isolating pathogen DNA via a DNA isolation and/or purification kit, and performing PCR on the pathogen DNA via PCR components (e.g., primers, enzymes, buffers) as would be known to the skilled artisan. Simultaneously, an additional aliquot of the same specimen (e.g., the second sample 108) is placed with liquid culture media and incubated for 4-6 hours. This aliquot is used for antimicrobial susceptibility testing if indicated based on the pathogen detection results. […] Specimens 100 with lower pathogen loads could also be utilized in the antibiotic susceptibility phase of testing with or without a longer incubation period. […] Antimicrobial solutions are prepared at known concentrations. The specific antimicrobials and their concentrations are selected based on the pathogen of interest and the described antimicrobial resistance breakpoints for that specimen pathogen and antimicrobial combination. These antimicrobials have been selected based on those commonly utilized by healthcare providers in routine clinical care for the specific type of suspected infection. The number and types of antimicrobials utilized can be customized based on the infection source, pathogen detected, patient-specific factors such as allergies or other health conditions (e.g., chronic kidney disease or concurrent medication use), or healthcare provider preferences such as antimicrobial availability or cost. The antimicrobial solutions are prepared in liquid culture media (such as Muller Hinton Broth) to achieve the desired antimicrobial concentration and are then stored at −80° C. until use. For a given specimen, each antimicrobial is tested at a single or multiple antimicrobial concentration(s) which is its established breakpoints for sensitivity. The antimicrobial solutions are prepared and plated out for each specific pathogen. This allows ease of use on the day of testing after defrosting the plate 112. Table 1, which illustrates the results of molecular phenotypic antimicrobial susceptibility testing when more than one organism is present in the source specimen, provides an example of an antimicrobial plate 112 prepared for this purpose. Of note, control wells containing only culture media are present on all plates 112. This allows for evaluation of pathogen load when no antimicrobial is present. Specimen Exposure to Antimicrobial Agents. The 1 mL aliquot of the specimen 100 previously mixed with culture media and incubated is obtained. Using optical density measurements as a guide, the specimen 100 is diluted to 0.5 McFarland. The specimen 100 is then placed into the previously prepared antimicrobial susceptibility testing plate 112. Each plate 112 is prepared for a single specimen 100 for a specified pathogen based on its detection. For example, if the specimen 100 has more than one pathogen detected that needs different antimicrobial concentrations for exposure due to different minimum inhibitory concentration breakpoints for one or more organisms, then more than one antimicrobial exposure plate 112 may be needed. […]
# pathogen of the specimen = assay: Traditional culture-based antimicrobial susceptibility test (comparison of Table 7); conditions: E. coli isolate 1189
# Protocol: as §1, with “7” for “1”, “at multiple incubation timepoints, in accordance with one or more embodiments of the disclosure. These specimens were tested with direct PCR (e.g., no” for “for Staphylococcus epidermidis. This specimen underwent”, “extraction” for “extraction or”, “purification step” for “purification”, “PCR). […]” for “PCR. The results of the test of the current application are similar to the results from the traditional test, with the results from the test of the current application being reportable considerably earlier than the test of the traditional test due no pathogen isolation requirement and due to less incubation time being required for the test of the current application.”
# [2] = A. baumannii isolate 1, Ct at control (average) 18.811
# [3] = A. baumannii isolate 1, at sensitive breakpoint
# [4] = A. baumannii isolate 2, Ct at control (average) 18.763
# [5] = A. baumannii isolate 2, at sensitive breakpoint
# [6] = A. baumannii isolate 3, Ct at control (average) 18.799
# [7] = A. baumannii isolate 3, at sensitive breakpoint
# [8] = A. baumannii isolate 4, Ct at control (average) 18.061
# [9] = A. baumannii isolate 4, at sensitive breakpoint
# [10] = A. baumannii isolate 5, Ct at control (average) 18.191
# [11] = A. baumannii isolate 5, at sensitive breakpoint
Molecule,Traditional Culture Result ([1]; S. epidermidis isolate 1),Traditional Culture Result ([1]; S. epidermidis isolate 2),Traditional Culture Result ([1]; S. epidermidis isolate 3),Traditional Culture Result ([1]; S. epidermidis isolate 4),Traditional Culture Result ([1]; S. epidermidis isolate 5),Ct at Sensitive Breakpoint (Acinetobacter baumannii; [2]),Molecular Antimicrobial Susceptibility Result (Acinetobacter baumannii; [3]),Ct at Sensitive Breakpoint (Acinetobacter baumannii; [4]),Molecular Antimicrobial Susceptibility Result (Acinetobacter baumannii; [5]),Ct at Sensitive Breakpoint (Acinetobacter baumannii; [6]),Molecular Antimicrobial Susceptibility Result (Acinetobacter baumannii; [7]),Ct at Sensitive Breakpoint (Acinetobacter baumannii; [8]),Molecular Antimicrobial Susceptibility Result (Acinetobacter baumannii; [9]),Ct at Sensitive Breakpoint (Acinetobacter baumannii; [10]),Molecular Antimicrobial Susceptibility Result (Acinetobacter baumannii; [11]),Traditional Culture Result (pathogen of the specimen)
CO/N=C(\C(=O)N[C@@H]1C(=O)N2C(C(=O)[O-])=C(C[N+]3(C)CCCC3)CS[C@H]12)c1csc(N)n1 [Cefepime],Resistant,Resistant,Resistant,Resistant,Resistant,19.944,Resistant,19.194,Resistant,19.873,Sensitive (Antimicrobial wells with pathogen load detected below the control wells (typically >2 cycle thresholds later) may be reported as Sensitive),18.955,Resistant,18.489,Resistant,Sensitive
Gentamicin,,,,,,,,,,,,19.380,Sensitive (Antimicrobial wells with pathogen load detected below the control wells (typically >2 cycle thresholds later) may be reported as Sensitive),19.399,Sensitive (Antimicrobial wells with pathogen load detected below the control wells (typically >2 cycle thresholds later) may be reported as Sensitive),Sensitive
Piperacillin/Tazobactam,,,,,,17.127,Resistant,19.691,Resistant,18.647,Resistant,16.207,Resistant,17.081,Resistant,Sensitive
Trimethoprim/Sulfamethoxazole [TMP/SMX],Resistant,Resistant,Resistant,Resistant,Resistant,22.888,Sensitive (Antimicrobial wells with pathogen load detected below the control wells (typically >2 cycle thresholds later) may be reported as Sensitive),22.916,Sensitive (Antimicrobial wells with pathogen load detected below the control wells (typically >2 cycle thresholds later) may be reported as Sensitive),22.407,Sensitive (Antimicrobial wells with pathogen load detected below the control wells (typically >2 cycle thresholds later) may be reported as Sensitive),23.297,Sensitive (Antimicrobial wells with pathogen load detected below the control wells (typically >2 cycle thresholds later) may be reported as Sensitive),22.742,Sensitive (Antimicrobial wells with pathogen load detected below the control wells (typically >2 cycle thresholds later) may be reported as Sensitive),Sensitive
